ChEMBL document CHEMBL5518248, “Design, Synthesis, and Biological Evaluation of Novel Arylomycins against Multidrug-Resistant Gram-Negative Bacteria” (J Med Chem, 2024)

Experiments:
Type in all cases: functional
Conditions in all cases: time 18-20 hrs
[1] = tested on: Escherichia coli; test: Antibacterial activity against Escherichia coli ATCC 35218 assessed as inhibition of bacterial growth measured after 18 to 20 hrs by broth microdilution method
[2] = tested on: Escherichia coli; test: Antibacterial activity against Escherichia coli 14-2 assessed as inhibition of bacterial growth measured after 18 to 20 hrs by broth microdilution method
[3] = tested on: Escherichia coli; test: Antibacterial activity against Escherichia coli 14-4 assessed as inhibition of bacterial growth measured after 18 to 20 hrs by broth microdilution method
[4] = tested on: Klebsiella pneumoniae; test: Antibacterial activity against Klebsiella pneumoniae 15-1 assessed as inhibition of bacterial growth measured after 18 to 20 hrs by broth microdilution method
[5] = tested on: Klebsiella pneumoniae; test: Antibacterial activity against Klebsiella pneumoniae 15-4 assessed as inhibition of bacterial growth measured after 18 to 20 hrs by broth microdilution method
[6] = tested on: Klebsiella pneumoniae; test: Antibacterial activity against Klebsiella pneumoniae 15-5 assessed as inhibition of bacterial growth measured after 18 to 20 hrs by broth microdilution method
[7] = tested on: Acinetobacter baumannii; test: Antibacterial activity against Acinetobacter baumannii 17-2 assessed as inhibition of bacterial growth measured after 18 to 20 hrs by broth microdilution method
[8] = tested on: Acinetobacter baumannii; test: Antibacterial activity against Acinetobacter baumannii 17-8 assessed as inhibition of bacterial growth measured after 18 to 20 hrs by broth microdilution method
[9] = tested on: Pseudomonas aeruginosa; test: Antibacterial activity against Pseudomonas aeruginosa 17-1 assessed as inhibition of bacterial growth measured after 18 to 20 hrs by broth microdilution method
[10] = tested on: Pseudomonas aeruginosa; test: Antibacterial activity against Pseudomonas aeruginosa 19-5 assessed as inhibition of bacterial growth measured after 18 to 20 hrs by broth microdilution method

SMILES	MIC [1] [µg/mL]	MIC [2] [µg/mL]	MIC [3] [µg/mL]	MIC [4] [µg/mL]	MIC [5] [µg/mL]	MIC [6] [µg/mL]	MIC [7] [µg/mL]	MIC [8] [µg/mL]	MIC [9] [µg/mL]	MIC [10] [µg/mL]
Cc1nc(-c2ccc(C(C)(C)C)cc2)ncc1C(=O)N[C@@H](CCN)C(=O)N(C)[C@@H]1C(=O)N[C@@H](C)C(=O)N[C@H](NC(=O)CC#N)Cc2ccc(OCCN)c(c2)-c2cc1ccc2OCCN.O=C(O)C(F)(F)F.O=C(O)C(F)(F)F.O=C(O)C(F)(F)F.O=C(O)C(F)(F)F	64	64	64	32	64	64	> 64	> 64	> 64	> 64
Cc1nc(-c2ccc(C(C)(C)C)cc2)ncc1C(=O)N[C@@H](CCN)C(=O)N(C)[C@@H]1C(=O)N[C@@H](C)C(=O)N[C@H](C(=O)NN(C)CC#N)Cc2ccc(OCCN)c(c2)-c2cc1ccc2OCCN.Cl.Cl.Cl.Cl	4	16	4	8	16	16	> 64	64	> 64	> 64
Cc1nc(-c2ccc(C(C)(C)C)cc2)ncc1CN[C@@H](CCN)C(=O)N(C)[C@@H]1C(=O)N[C@@H](C)C(=O)N[C@H](C(=O)NCC#N)Cc2ccc(OCCN)c(c2)-c2cc1ccc2OCCN.O=C(O)C(F)(F)F.O=C(O)C(F)(F)F.O=C(O)C(F)(F)F.O=C(O)C(F)(F)F	0.5	4	2	16	32	16	8	2	64	> 64
CSSc1ccc(-c2ncc(C(=O)N[C@@H](CCN)C(=O)N(C)[C@@H]3C(=O)N[C@@H](C)C(=O)N[C@H](C(=O)NCC#N)Cc4ccc(OCCN)c(c4)-c4cc3ccc4OCCN)c(C)n2)cc1.O=C(O)C(F)(F)F.O=C(O)C(F)(F)F.O=C(O)C(F)(F)F.O=C(O)C(F)(F)F	0.25	0.5	0.5	0.5	1	1	4	2	16	16
Cc1nc(C2=CCC3(CC2)CC3)ncc1C(=O)N[C@@H](CCN)C(=O)N(C)[C@@H]1C(=O)N[C@@H](C)C(=O)N[C@H](C(=O)NCC#N)Cc2ccc(OCCN)c(c2)-c2cc1ccc2OCCN.O=C(O)C(F)(F)F.O=C(O)C(F)(F)F.O=C(O)C(F)(F)F.O=C(O)C(F)(F)F	0.125	0.25	0.25	0.25	0.25	1	16	4	> 64	> 64
Cc1nc(-c2ccc(CSSCCC(F)(F)F)cc2)ncc1C(=O)N[C@@H](CCN)C(=O)N(C)[C@@H]1C(=O)N[C@@H](C)C(=O)N[C@H](C(=O)NCC#N)Cc2ccc(OCCN)c(c2)-c2cc1ccc2OCCN.O=C(O)C(F)(F)F.O=C(O)C(F)(F)F.O=C(O)C(F)(F)F.O=C(O)C(F)(F)F	0.06	0.125	0.125	0.25	0.25	0.25	2	1	8	8
Cc1nc(-c2ccc(C3SCCS3)cc2)ncc1C(=O)N[C@@H](CCN)C(=O)N(C)[C@@H]1C(=O)N[C@@H](C)C(=O)N[C@H](C(=O)NCC#N)Cc2ccc(OCCN)c(c2)-c2cc1ccc2OCCN.O=C(O)C(F)(F)F.O=C(O)C(F)(F)F.O=C(O)C(F)(F)F.O=C(O)C(F)(F)F	0.06	0.125	0.125	0.25	1	0.25	8	2	32	64
CCSSc1ccc(-c2ncc(C(=O)N[C@@H](CCN)C(=O)N(C)[C@@H]3C(=O)N[C@@H](C)C(=O)N[C@H](C(=O)NCC#N)Cc4ccc(OCCN)c(c4)-c4cc3ccc4OCCN)c(C)n2)cc1.O=C(O)C(F)(F)F.O=C(O)C(F)(F)F.O=C(O)C(F)(F)F.O=C(O)C(F)(F)F	≤ 0.03	0.125	0.06	0.06	0.125	0.125	2	1	8	8
Cc1nc(-c2ccc(C(C)(C)C)cc2)ncc1C(=O)N[C@@H](CCN)C(=O)N(C)[C@H]1Cc2ccc(OCCN)c(c2)-c2cc(ccc2OCCN)[C@@H](C(=O)NCC#N)NC(=O)[C@H](C)NC1=O.Cl.Cl.Cl.Cl	> 64	> 64	> 64	> 64	> 64	> 64	> 64		> 64	> 64
Cc1nc(-c2ccc(C(C)(C)C)cc2)ncc1C(=O)N[C@@H](CCN)C(=O)N(C)[C@@H]1C(=O)N[C@@H](C)C(=O)N[C@H](C(=O)NCC#N)c2ccc(OCCN)c(c2)-c2cc1ccc2OCCN.Cl.Cl.Cl.Cl	64	32	32	64	> 64	64	> 64		> 64	32
Cc1nc(-c2ccc(C(C)(C)C)cc2)ncc1C(=O)N[C@@H](CCN)C(=O)N(C)[C@@H]1C(=O)NCCC(=O)N[C@H](C(=O)NCC#N)Cc2ccc(OCCN)c(c2)-c2cc1ccc2OCCN.Cl.Cl.Cl.Cl	16	16	16	32	32	64	> 64		> 64	> 64

Next, values leading:

MIC [1] [µg/mL]	MIC [2] [µg/mL]	MIC [3] [µg/mL]	MIC [4] [µg/mL]	MIC [5] [µg/mL]	MIC [6] [µg/mL]	MIC [7] [µg/mL]	MIC [8] [µg/mL]	MIC [9] [µg/mL]	MIC [10] [µg/mL]	SMILES
≤ 0.03	0.25	0.125	0.125	0.5	0.25	1	1	8	6	Cc1cc(-c2ccc(CSSC(C)(C)C)cc2)ncc1C(=O)N[C@@H](CCN)C(=O)N(C)[C@@H]1C(=O)N[C@@H](C)C(=O)N[C@H](C(=O)NCC#N)Cc2ccc(OCCN)c(c2)-c2cc1ccc2OCCN.O=C(O)C(F)(F)F.O=C(O)C(F)(F)F.O=C(O)C(F)(F)F.O=C(O)C(F)(F)F
32	64	64	64	64	64	> 64	> 64	> 64	> 64	Cc1nc(-c2ccc(C(C)(C)C)cc2)ncc1C(=O)N[C@@H](CCN)C(=O)N(C)[C@@H]1C(=O)N[C@@H](C)C(=O)N[C@H](NC(=O)NC#N)Cc2ccc(OCCN)c(c2)-c2cc1ccc2OCCN.O=C(O)C(F)(F)F.O=C(O)C(F)(F)F.O=C(O)C(F)(F)F.O=C(O)C(F)(F)F
4	8	8	16	16	16	16	16	> 64	> 64	Cc1nc(-c2ccc(C(C)(C)C)cc2)ncc1C(=O)N[C@@H](CCN)C(=O)N(C)[C@@H]1C(=O)N[C@@H](C)C(=O)N[C@H](C(=O)CC#N)Cc2ccc(OCCN)c(c2)-c2cc1ccc2OCCN.O=C(O)C(F)(F)F.O=C(O)C(F)(F)F.O=C(O)C(F)(F)F.O=C(O)C(F)(F)F
≤ 0.03	0.125	0.06	0.06	0.125	0.06	2	1	16	16	Cc1nc(-c2ccc(SC(C)(C)C)cc2)ncc1C(=O)N[C@@H](CCN)C(=O)N(C)[C@@H]1C(=O)N[C@@H](C)C(=O)N[C@H](C(=O)NCC#N)Cc2ccc(OCCN)c(c2)-c2cc1ccc2OCCN.O=C(O)C(F)(F)F.O=C(O)C(F)(F)F.O=C(O)C(F)(F)F.O=C(O)C(F)(F)F
2	2	2	8	16	8	4	1	32	64	Cc1nc(-c2ccc(C(C)(C)C)cc2)ncc1C(=O)C(=O)N[C@@H](CCN)C(=O)N(C)[C@@H]1C(=O)N[C@@H](C)C(=O)N[C@H](C(=O)NCC#N)Cc2ccc(OCCN)c(c2)-c2cc1ccc2OCCN.O=C(O)C(F)(F)F.O=C(O)C(F)(F)F.O=C(O)C(F)(F)F.O=C(O)C(F)(F)F
0.5	0.5	0.5	0.5	2	1	32		> 64	> 64	Cc1nc(-c2ccc(C(C)(C)C)cc2)ncc1C(=O)N[C@@H](CCN)C(=O)N(C)[C@@H]1C(=O)N[C@@H](C)C(=O)N[C@H](C(=O)NOCC#N)Cc2ccc(OCCN)c(c2)-c2cc1ccc2OCCN.Cl.Cl.Cl.Cl
1	1	1	1	2	1	64		> 64	> 64	Cc1nc(-c2ccc(C(C)(C)C)cc2)ncc1C(=O)N[C@@H](CCN)C(=O)N(C)[C@@H]1C(=O)N[C@@H](C)C(=O)N[C@H](C(=O)NCC(=O)O)Cc2ccc(OCCN)c(c2)-c2cc1ccc2OCCN.Cl.Cl.Cl.Cl
16	32	8	4	16	8	> 64		> 64	> 64	Cc1nc(-c2ccc(C(C)(C)C)cc2)ncc1C(=O)N[C@@H](CCN)C(=O)N(C)[C@@H]1C(=O)N[C@@H](C)C(=O)N[C@H](C(=O)NCS(=O)(=O)O)Cc2ccc(OCCN)c(c2)-c2cc1ccc2OCCN.Cl.Cl.Cl.Cl
